Read-outs that look alike come from different tables or passages of the source.
Columns and labels:
Assay type in all cases: in vivo
[1] = test system: VERPE: bird's-eye speedwell (veronica persica); experiment: Post-emergent Test III, herbicidal activity in wheat and barley; conditions: for GR50 VERPE / GR80 VERPE: probit analysis; for pest or weed control at 35 g/ha: 35 g ai/ha; for pest or weed control at 70 g/ha: 70 g ai/ha
In short: (§1)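 Plants at the second to third true-leaf stage, grown in a greenhouse at about 18/17 °C with a 14 h photoperiod, were sprayed post-emergence at 187 L/ha with the high rate and ½× to 1/16× serial dilutions in an acetone/DMSO/crop-oil/surfactant carrier. Injury was rated visually at 21 d on a 0–100% scale, and GR20–GR90 were derived by probit analysis.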

[2] = test system: AVEFA: wild oats (Avena fatua); experiment: Post-emergent Test I herbicidal activity; conditions: post-emergence, 336 h, 4 kg ai/ha, read-out: Visual Growth Reduction (%) 14 Days After Application, AVEFA
Procedure: (§2) Post-emergent Test I Seeds test species were obtained from commercial suppliers and planted into a 13 cm diameter-round pot containing soil-less media mix (metro-mix 360®, Sun Gro Horticulture). Postemergence treatments were planted 8-12 days prior to application and cultured in a greenhouse equipped with supplemental light sources to provide a 16 h photoperiod at 24-29° C. All pots were surface irrigated.
(§3) A weighted amount, determined by the highest rate to be tested, of each compound was dissolved in 1.3 mL acetone-DMSO (97:3, v/v) and diluted with 4.1 mL water-isopropanol-crop oil concentrate (78:20:2, v/v/v) containing 0.02% Triton X-155 to obtain concentrated stock solutions. Additional application rates were obtained by serial dilution of the high rate solution into a solution containing appropriate volume of 97:3 v/v mixture of acetone and DMSO and appropriate volume of an aqueous mixture of water, isopropyl alcohol, crop oil concentrate (78:20:2, v/v/v) containing 0.02% Triton X-155.
(§4) Formulated compounds were applied using a DeVilbiss® compressed air sprayer at 2-4 psi. Following treatment, pots were returned to the greenhouse for the duration of the experiment. All pots were sub-irrigated as need to provide optimum growing conditions. All pots were fertilized one time per week by subirrigating with Peters Peat-Lite Special® fertilizer (20-10-20).
(§5) […] All evaluations were made visually on a scale of 0 to 100 where 0 represents no activity and 100 represents complete plant death. Visual assessments of plant injury were made based on growth reduction, discoloration, leaf deformity and necrosis.

[3] = test system: ECHCG: barnyardgrass (Echinochloa crus-galli); experiment: Post-emergent Test I herbicidal activity; conditions: post-emergence, 336 h, 4 kg ai/ha, read-out: Visual Growth Reduction (%) 14 Days After Application, ECHCG
Procedure: as §2, §3, §4, §5

[4] = test system: HELAN: sunflower (Helianthus annuus); experiment: Post-emergent Test I herbicidal activity; conditions: post-emergence, 336 h, 4 kg ai/ha, read-out: Visual Growth Reduction (%) 14 Days After Application, HELAN
Procedure: as §2, §3, §4, §5

[5] = test system: IPOHE: ivyleaf morningglory (Ipomoea hederecea); experiment: Post-emergent Test I herbicidal activity; conditions: post-emergence, 336 h, 4 kg ai/ha, read-out: Visual Growth Reduction (%) 14 Days After Application, IPOHE
Procedure: as §2, §3, §4, §5

[6] = test system: SETFA: giant foxtail (Setaria faberi); experiment: Post-emergent Test I herbicidal activity; conditions: post-emergence, 336 h, 4 kg ai/ha, read-out: Visual Growth Reduction (%) 14 Days After Application, SETFA
Procedure: as §2, §3, §4, §5

[7] = test system: BROTE: downy brome (Bromus tectorum); experiment: Post-emergent Test III, herbicidal activity in wheat and barley
In short: as §1

[8] = Table 8, dose for 50 percent growth reduction, 21 d
[9] = Table 8, dose for 80 percent growth reduction, 21 d
[10] = Veronica persica, post-emergence, 504 h, Table 8, post-emergent, 21 d, read-out: Visual Growth Reduction (%) 21 Days After Application VERPE
[11] = Veronica persica, post-emergence, 504 h, read-out: Visual Growth Reduction (%) 21 Days After Application VERPE
[12] = Veronica persica, post-emergence, 504 h, 21 days after application, read-out: Visual Gorowth Reduction (%) 21 days After Application VERPE
[13] = dose for 50 percent growth reduction, 21 days after application
[14] = dose for 80 percent growth reduction, 21 days after application

With `Nc1cc(-c2cc(F)c(Br)cc2F)nc(C(=O)O)c1Cl` [Compound 3] the “GR50 VERPE” value [1, 8] was 34 g ai/ha, the “GR80 VERPE” value [1, 9] was 126 g ai/ha and the pest or weed control at 35 g/ha [1, 10] was 45 to 59%. For the same compound, the pest or weed control at 70 g/ha [1, 10] was 60 to 74%.

`Nc1c(F)c(-c2ccc(Br)cc2)nc(C(=O)O)c1Cl` [Compound 20] gave a pest or weed control at 4000 g/ha [2] of 75 to 84%, a pest or weed control at 4000 g/ha [3] of 95 to 100% and a pest or weed control at 4000 g/ha [4] of 95 to 100%. For the same compound, the pest or weed control at 4000 g/ha [5] was 85 to 94%, the pest or weed control at 4000 g/ha [6] was 95 to 100% and the pest or weed control at 35 g/ha ([7]; Bromus tectorum, post-emergence, 504 h, 35 g ai/ha, read-out: Visual Growth Reduction (%) 21 Days After Application BROTE) was 75 to 84%. The pest or weed control at 70 g/ha ([7]; Bromus tectorum, post-emergence, 504 h, 70 g ai/ha, read-out: Visual Growth Reduction (%) 21 Days After Application BROTE) was 85 to 94%, the pest or weed control at 140 g/ha ([7]; Bromus tectorum, post-emergence, 504 h, 140 g ai/ha, read-out: Visual Growth Reduction (%) 21 Days After Application BROTE) was 85 to 94% and the “GR50 BROTE” value ([7]; probit analysis, dose for growth reduction of 50 percent, 21 days after application) was 3 g ai/ha. The “GR80 BROTE” value ([7]; probit analysis, dose for growth reduction of 80 percent, 21 days after application) was 87 g ai/ha, the pest or weed control at 35 g/ha [1, 11] was 60 to 74% and the pest or weed control at 70 g/ha [1, 11] was 60 to 74%. The pest or weed control at 140 g/ha ([1]; Veronica persica, post-emergence, 504 h, 140 g ai/ha, read-out: Visual Growth Reduction (%) 21 Days After Application VERPE) was 75 to 84%, the “GR50 VERPE” value ([1]; dose for growth reduction of 50 percent, 21 days after application) was 33 g ai/ha and the “GR80 VERPE” value ([1]; dose for growth reduction of 80 percent, 21 days after application) was >140 g ai/ha.

In the case of `COC(=O)c1nc(-c2ccc(I)c(F)c2)nc(N)c1OC` [Compound 27, Methyl 6-amino-2-(3-fluoro-4-iodophenyl)-5-methoxypyrimidine-4-carboxylate], the “GR50 VERPE” value [1, 8] is reported as 5 g ai/ha, the “GR80 VERPE” value [1, 9] is reported as 42 g ai/ha and the pest or weed control at 35 g/ha [1, 10] is reported as 75 to 84%. For the same compound, the pest or weed control at 70 g/ha [1, 10] was 85 to 94%.

`COc1c(N)nc(-c2ccc(I)c(F)c2)nc1C(=O)O` [Compound 37, 6-Amino-2-(3-fluoro-4-iodophenyl)-5-methoxypyrimidine-4-carboxylic acid] was tested, and the “GR50 VERPE” value [1, 8] was 15 g ai/ha, the “GR80 VERPE” value [1, 9] was 66 g ai/ha and the pest or weed control at 35 g/ha [1, 10] was 60 to 74%. The pest or weed control at 70 g/ha [1, 10] was 75 to 84%.

In the case of `Nc1c(Cl)c(C(=O)O)nc(-c2ccc(Br)c(F)c2)c1Cl` [Compound 43, 4-Amino-6-(4-bromo-3-fluorophenyl)-3,5-dichloropicolinic acid], the “GR50 VERPE” value [1, 8] is reported as 33 g ai/ha, the “GR80 VERPE” value [1, 9] is reported as >140 g ai/ha and the pest or weed control at 35 g/ha [1, 10] is reported as 30 to 44%. For the same compound, the pest or weed control at 70 g/ha [1, 10] was 75 to 84%.

`Nc1c(F)c(-c2cc(F)c(I)cc2F)nc(C(=O)O)c1Cl` [Compound 69] was tested, and the pest or weed control at 35 g/ha [1, 12] was 85 to 94%, the pest or weed control at 70 g/ha [1, 12] was 95 to 100% and the “GR50 VERPE” value [1, 13] was 1 g ai/ha. For the same compound, the “GR80 VERPE” value [1, 14] was 4 g ai/ha.

`COC(=O)c1nc(-c2ccc(I)c(F)c2)c(C)c(N)c1Cl` [Compound 79, Methyl 4-amino-3-chloro-6-(3-fluoro-4-iodophenyl)-5-methylpicolinate] was tested, and the “GR50 VERPE” value [1, 8] was 2 g ai/ha, the “GR80 VERPE” value [1, 9] was 37 g ai/ha and the pest or weed control at 35 g/ha [1, 10] was 75 to 84%. The pest or weed control at 70 g/ha [1, 10] was 85 to 94%.

For `C=Cc1c(C(=O)O)nc(-c2ccc(C(F)(F)F)c(F)c2)c(F)c1N` [Compound 86], the pest or weed control at 35 g/ha [1, 12] was 85 to 94%, the pest or weed control at 70 g/ha [1, 12] was 85 to 94% and the “GR50 VERPE” value [1, 13] was 15 g ai/ha. For the same compound, the “GR80 VERPE” value [1, 14] was 34 g ai/ha.

— US9113629B2, “4-amino-6-(4-substituted-phenyl)-picolinates and 6-amino-2-(4-substituted-phenyl)-pyrimidine-4-carboxylates and their use as herbicides” (DOW AGROSCIENCES LLC, priority 2013, dated 2015)
